In patent US4499104A, “Imidazole compound, the process for its preparation, and therapeutically active compositions containing same” (priority 1976, dated 1985):

What was measured:
[1] = Pulminary edema by carrageen (Sancilio method, pleural exudate); assay type: in vivo, Wistar-Roux-Ocefa rats; conditions: for ml of exudate: 30 mg/Kg, pleural cavity
Protocol: Using the Sancilio method (Sancilio F. L., J. Pharmacol. Exptl. Therap., 168, 199 (1969); Sancilio L. F. Rodrigues R., Proc. Soc. Exptl. Biol. Med., 123, 707 (1969); Sancilio L. F. Lawrence R., Proc. Soc. Exptl. Biol. Med., 127, 597 (1968), pulminary irritation was induced in Wistar-Roux-Ocefa rats and the capacity of chlorophenazole and other drugs to prevent production of pleural exudate was measured. 5 ml of a 0.025% carrageen solution and 0.075% Evans blue were injected into the pleurea.
The action of chlorophenazole, mepyrazole and phenylbutazone were evaluated from the quantity of exudate present in the pleural cavity after 1 and 6 hours.

[2] = system: rats; test: Chronic toxicity, first experiment (60 days); assay type: in vivo, Wistar-Ocefa rats; conditions: rat, in vivo
Protocol: Wistar-Ocefa rats of both sexes weighing 70-90 g were used, divided into groups of 30 animals (15 males and 15 females) to a total of […].
Chlorophenazole and phenylbutazone (reference drug) were administered orally for a period of 60 days in doses of 30-60 mg/kg of chlorophenazole and 8-160 mg/kg of phenylbutazone (first experiment) and for a period of 5 months in doses of 6-12 mg/kg of chlorophenazole and 16 mg/kg of phenylbutazone (second experiment).
The following parameters were determined periodically: behavior, general state, food consumption, body weight, red blood cell number, white blood cell number, leucocite formula, hemoglobin, hematocrit, globular value, total proteins, glycemia, azotemia, cholesterol, total lipids, triglycerides, creatinine, GOT, GPT, urine analysis. At the end of the experiment the animals were sacrificed, their general state was observed, the following organs were weighed: liver, spleen, kidneys, supranenes, ovary and testicles, lungs, heart, stomach.

[3] = in vivo; conditions: rat, po
[4] = Edema by carrageen (rat paw), antiedematous activity; assay type: in vivo, Rats of the Wistar-Roux-Ocefa stock; conditions: for IT (DL50/DE50): DL50/DE50, os; for ED50: Rattus norvegicus, po, os, probits method and graphically, read-out: DE50 (the source's name)
Protocol: (§1) A 1% physiological solution of carrageen was used. Rats of the Wistar-Roux-Ocefa stock having a weight of 150±30 g were used. The drugs were suspended in 1% carboxymethylcellulose or dissolved in distilled water and administered orally one hour before the inflammatory agent in a volume of 0.5 ml/100 g. The carrageen was adminstered subcutaneously in the subplanetary region of one of the rear paws. The volume of the paw was measured platysmagraphically initially and then after 1.5 hour, 3 hours and 5 hours after administering the carrageen. One inflammation unit was defined as the displacement of 0.01 ml of Hg.
(§2) The edema was evaluated as the difference in volume of the rear paw before and after the carrageen. The DE 50 was calculated by the probits method and graphically. The comparison drugs used were phenylbutazone and niflumic acid.

[5] = Edema by carrageen in normal and adrenoprival (suprarenectomised) rats; assay type: in vivo, rat; parameters: Edema by carrageen: unit not given beside the values; conditions: adrenoprival rats
Protocol: as §1, §2
To evaluate if the activity of the chlorophenazole on edema by carrageen was influenced by stimulation of the suprarenes, experiments were carried out with suprarenectomised rats. Normal rats were also compared with falsely operated rats to evaluate the influence of the operational trauma.

[6] = Action on sleep by barbiturates; assay type: in vivo, Wistar-Ocefa rats; conditions: pentobarbital sodium 40 mg/kg alone
Protocol: […] Loss of the redressment reflex was taken to indicate commencement of sleep. The chlorophenazone was administered orally with a dose of 1/10 of the DL50. The induction time and the duration of sleep were measured.

Row | SMILES | ml of exudate [1] [mL] | LD50 [3] [mg/kg] | Δ Volume of the inflamed paw ([4]; 10 mg/kg oral, 1.5 hours) [UPI] | Δ Volume of the inflamed paw ([4]; 10 mg/kg oral, 3 hours) [UPI] | Δ Volume of the inflamed paw ([4]; 10 mg/kg oral, 5 hours) [UPI] | Δ Volume of the inflamed paw ([4]; 20 mg/kg oral, 1.5 hours) [UPI] | Δ Volume of the inflamed paw ([4]; 20 mg/kg oral, 3 hours) [UPI] | Δ Volume of the inflamed paw ([4]; 20 mg/kg oral, 5 hours) [UPI] | Δ Volume of the inflamed paw ([4]; 40 mg/kg oral, 1.5 hours) [UPI] | Δ Volume of the inflamed paw ([4]; 40 mg/kg oral, 3 hours) [UPI] | Δ Volume of the inflamed paw ([4]; 40 mg/kg oral, 5 hours) [UPI] | IT (DL50/DE50) [4] | ED50 [4] [mg/kg] | also measured
1 | COc1cc(C)nc(-n2nc(C)cc2OC)n1 [Mepyrazole] | 4.38 | – | – | – | – | – | – | – | – | – | – | – | – | –
2 | CCCCC1C(=O)N(c2ccccc2)N(c2ccccc2)C1=O [Phenylbutazone] | 3.12 | 351 | 28 | 65 | 88 | 26 | 59 | 74 | 24 | 51 | 73 | 23.40 | 15 | cholesterol [2]: the same for cholesterol at the larger doses; stomach appearance [2]: contract and pale; activity on pleural exudate ([1]; exudate after 1 and 6 hours): significantly active
3 | O=C(O)c1cccnc1Nc1cccc(C(F)(F)F)c1 [Niflumic acid] | – | 30 | 25 | 51 | 80 | 20 | 35 | 56 | 18 | 33 | 49 | 11.40 | 7 | Edema by carrageen ([5]; 10 mg/kg, 1.5 hours): 25; Edema by carrageen ([5]; 10 mg/kg, 3 hours): 34; Edema by carrageen ([5]; 20 mg/kg, 1.5 hours): 20; Edema by carrageen ([5]; 20 mg/kg, 3 hours): 24; Edema by carrageen ([5]; 40 mg/kg, 1.5 hours): 19; Edema by carrageen ([5]; 40 mg/kg, 3 hours): 30
4 | CCCC(C)C1(CC)C(=O)NC(=O)NC1=O (stereo not shown) [Pentobarbital sodium, reference compound] | – | – | – | – | – | – | – | – | – | – | – | – | – | Induction time [6]: 4.4 min; Sleeping time [6]: 49.1 min
